Calls of active or inactive are those of the source. No cut-off for these calls is given here.
Tests used:
[1] = cells; conditions: Homo sapiens, A2780AD, 48 h
[2] = biological target: Tubulin (Bos taurus, UniProt Q6B856+Q862L2+Q862F3); assay: Displacement of fluorescent probe (R)-(+)-ethyl 5-amino2-methyl-1,2-dihydro-3-phenylpyrido[3,4-b]pyrazin-7-ylcarbamate from calf brain tubulin colchicine binding site assessed as dissociation constant at 0.05 to 70 uM incubated for 30 mins by fluorescence based assay
[3] = tested on: HeLa; assay: cells; conditions: Homo sapiens, 48 h
[4] = tested on: A549; assay: cells; conditions: Homo sapiens, A549, 48 h
[5] = tested on: A2780; assay: cells; conditions: Homo sapiens, A2780, 48 h
[6] = tested on: HeLa; assay: cells; conditions: Homo sapiens, 48 h; remark: listed apart in the source
[7] = tested on: NCI-H460; assay: Antitumor activity against human NCI-H460 cells xenografted in athymic nu/nu mouse assessed as mean survival time at 2.5 mg/kg, iv administered once a week for 2 weeks; assay type: functional
[8] = tested on: NCI-H460; assay: Antitumor activity against human NCI-H460 cells xenografted in athymic nu/nu mouse assessed as mean survival time at 1.7 mg/kg, iv administered once a week for 2 weeks; assay type: functional
[9] = tested on: NCI-H460; assay: Antitumor activity against human NCI-H460 cells xenografted in athymic nu/nu mouse assessed as increase in survival time at 0.75 mg/kg, iv administered once a week for 2 weeks; assay type: functional, organism-based
[10] = tested on: NCI-H460; assay: Antitumor activity against human NCI-H460 cells xenografted in athymic nu/nu mouse assessed as reduction in tumor size at 1.1 to 2.5 mg/kg, iv administered once a week for 2 weeks by digital caliper based analysis; assay type: functional, organism-based; conditions: dose 1.1-2.5 mg/kg
[11] = tested on: NCI-H460; assay: Antitumor activity against human NCI-H460 cells xenografted in athymic nu/nu mouse assessed as mean survival time at 0.75 mg/kg, iv administered once a week for 2 weeks; assay type: functional
[12] = tested on: NCI-H460; assay: Antitumor activity against human NCI-H460 cells xenografted in athymic nu/nu mouse assessed as increase in survival time at 1.1 to 2.5 mg/kg, iv administered once a week for 2 weeks; assay type: functional, organism-based; conditions: dose 1.1-2.5 mg/kg
[13] = tested on: NCI-H460; assay: Antitumor activity against human NCI-H460 cells xenografted in athymic nu/nu mouse assessed as median tumor volume at 1.7 mg/kg, iv measured on day 7 by digital caliper based analysis; assay type: functional; conditions: time 7 day
[14] = Toxicity in athymic nu/nu mouse xenografted with human NCI-H460 cells assessed as reduction in body weight at 2.5 mg/kg, iv measured on day 2; assay type: organism-based; set-up: scale not given: the % may be the effect or the level left; conditions: in vivo, 48 h, time 2 day
[15] = biological target: T1, Tubulin (Homo sapiens) (UniProt P68371+Q9H4B7+P0DPH7+P68366+Q13509+Q71U36+P04350+Q3ZCM7+P07437+P68363+Q9BQE3+Q6PEY2+Q13885+Q9BVA1+Q9BUF5); assay: Disruption of microtubule network in human A549 cells assessed as appearance of cellular phenotype with hypercondensed chromatin incubated for 24 hrs by immunofluorescence staining based epifluorescence microscopic analysis; assay type: cell-based
[16] = biological target: T1, Tubulin (Homo sapiens); assay: Disruption of microtubule network in human A549 cells assessed as induction of cellular landscape at 1 nM incubated for 24 hrs by immunofluorescence staining based epifluorescence microscopic analysis; assay type: cell-based
[17] = tested on: NCI-H460; assay: Antitumor activity against human NCI-H460 cells xenografted in athymic nu/nu mouse assessed as median tumor volume at 2.5 mg/kg, iv measured on day 7 by digital caliper based analysis; assay type: functional; conditions: time 7 day
[18] = biological target: T1, Tubulin (Homo sapiens); assay: Disruption of microtubule network in human A549 cells assessed as reduction in number and length of microtubules incubated for 24 hrs by immunofluorescence staining based epifluorescence microscopic analysis; assay type: cell-based
[19] = Toxicity in athymic nu/nu mouse xenografted with human NCI-H460 cells assessed as reduction in body weight at 2.5 mg/kg, iv measured on day 7; assay type: organism-based; set-up: scale not given: the % may be the effect or the level left; conditions: in vivo, 168 h, time 7 day
[20] = tested on: NCI-H460; assay: Antitumor activity against human NCI-H460 cells xenografted in athymic nu/nu mouse assessed as median tumor volume at 1.1 mg/kg, iv measured on day 7 by digital caliper based analysis; assay type: functional; conditions: time 7 day
[21] = Inhibition of human recombinant alpha1beta3 tubulin expressed in Sf9 insect cells at 5 to 27.5 uM incubated for 70 mins by […]; conditions: dose 5-27.5 µM
[22] = tested on: NCI-H460; assay: Antitumor activity against human NCI-H460 cells xenografted in iv dosed athymic nu/nu mouse assessed as reduction in tumor volume administered once a week for 2 weeks and measured 2 to 3 times per week by digital caliper based analysis; assay type: functional, organism-based; conditions: dose 0.25-2.5 mg/kg
[23] = biological target: T1, Tubulin (Homo sapiens); assay: Disruption of microtubule network in human A549 cells assessed as reduction in mitotic spindle formation incubated for 24 hrs by immunofluorescence staining based epifluorescence microscopic analysis; assay type: cell-based
[24] = biological target: T2, Tubulin (Bos taurus) (UniProt Q6B856+Q862L2+Q862F3); assay: Inhibition of calf brain tubulin assembly measured upto 100 mins; conditions: dose 0.625-5 µM
[25] = biological target: T1, Tubulin (Homo sapiens); assay: Disruption of microtubule network in human A549 cells assessed as appearance of aberrant chromosome distribution incubated for 24 hrs by immunofluorescence staining based epifluorescence microscopic analysis; assay type: cell-based
[26] = tested on: NCI-H460; assay: Antitumor activity against human NCI-H460 cells xenografted in athymic nu/nu mouse assessed as mean survival time at 1.1 mg/kg, iv administered once a week for 2 weeks; assay type: functional
[27] = tested on: NCI-H460; assay: Antitumor activity against human NCI-H460 cells xenografted in athymic nu/nu mouse assessed as reduction in tumor size at 0.75 mg/kg, iv administered once a week for 2 weeks by digital caliper based analysis; assay type: functional, organism-based
[28] = Toxicity in athymic nu/nu mouse xenografted with human NCI-H460 cells assessed as reduction in body weight at 2.5 mg/kg, iv measured on day 5; assay type: organism-based; set-up: scale not given: the % may be the effect or the level left; conditions: in vivo, 120 h, time 5 day
[29] = tested on: NCI-H460; assay: Antitumor activity against human NCI-H460 cells xenografted in athymic nu/nu mouse assessed as median tumor volume at 0.75 mg/kg, iv measured on day 7 by digital caliper based analysis; assay type: functional; conditions: time 7 day
[30] = biological target: T2, Tubulin (Bos taurus); assay: Displacement of 2-methoxy-5-(2,3,4-trimethoxyphenyl)-2,4,6-cycloheptatriene-1-one from calf brain tubulin colchicine site
[31] = biological target: T1, Tubulin (Homo sapiens); assay: Disruption of microtubule network in human A549 cells assessed as disorganization of tubulin cytoskeleton during interphase incubated for 24 hrs by immunofluorescence staining based epifluorescence microscopic analysis; assay type: cell-based
[32] = Toxicity in athymic nu/nu mouse xenografted with human NCI-H460 cells assessed as clinical signs of systemic toxicity at 2.5 mg/kg, iv administered once a week for 2 weeks; assay type: organism-based; conditions: in vivo, 336 h
[33] = tested on: NCI-H460; assay: Antitumor activity against human NCI-H460 cells xenografted in athymic nu/nu mouse assessed as increase in apoptosis by measuring number of apoptotic nuclei in tumor at 2.5 mg/kg, iv administered once a week for 2 weeks and measured 24 hrs post last dose by Hoechst 33258 staining based fluorescence microscopic analysis (reference value: 1 +/- 0.1); assay type: functional; conditions: time 15 day
[34] = Antiproliferative activity against human A2780AD cells overexpressing P-gp assessed as inhibition of cell growth; assay type: functional, cell-based
[35] = tested on: A2780; assay: Antiproliferative activity against human A2780 cells assessed as inhibition of cell growth; assay type: functional, cell-based
[36] = biological target: Tubulin; assay: Displacement of fluorescent probe (R)-(+)-ethyl 5-amino2-methyl-1,2-dihydro-3-phenylpyrido[3,4-b]pyrazin-7-ylcarbamate from tubulin colchicine binding site (unknown origin) assessed as dissociation constant; assay type: protein-complex assay, Homo sapiens
[37] = biological target: T2, Tubulin (Bos taurus); assay: Binding affinity to calf brain tubulin colchicine binding site assessed as Koff at 3 uM incubated for 30 mins by fluorescence based photon-counting instrument
[38] = biological target: T1, Tubulin (Homo sapiens)
[39] = tested on: A549; assay: cells; conditions: Homo sapiens
Description: Antiproliferative activity against human A549 cells assessed as inhibition of cell growth

[40] = tested on: HeLa; assay: cells; conditions: Homo sapiens
Description: Antiproliferative activity against human HeLa cells assessed as inhibition of cell growth

[41] = tested on: HeLa; assay: cells; conditions: Homo sapiens; remark: listed apart in the source
Description: Antiproliferative activity against human HeLa cells expressing tubulin betaIII assessed as inhibition of cell growth

In the case of `CCC[C@@H](NC(=O)[C@]1(C)CSC(/C(C)=N/O)=N1)c1cc(OC)cc(=O)o1`, the IC50 [1] is reported as 54 nM, the Kd [2] is reported as 960 nM and the IC50 [3] is reported as 28 nM. It also gave an IC50 [4] of 23 nM, an IC50 [5] of 22 nM and an IC50 [6] of 19 nM.
With `CCC[C@@H](NC(=O)[C@]1(C)CSC(/C(C)=N/O)=N1)c1cc(OCC2CC2)cc(=O)o1` the MST [7] was 21 days, the MST [8] was 20 days and the Activity [9] was “inactive”. The IC50 [1] was 3.2 nM, the Activity [10] was “Active” and the MST [11] was 10.5 days. For the same compound, the Activity [12] was “Active”, the Activity [13] was 580 mm3 and the Activity [14] was 11.2%. For the same compound, the Activity [15] was “Active”, the Activity [16] was “Active” and the Activity [17] was 260.4 mm3. For the same compound, the Kd [2] was 20 nM, the Activity [18] was “Active” and the Activity [19] was -2.9%. For the same compound, the Activity [20] was 947.3 mm3, the inhibition [21] was “Active” and the Activity [22] was “Dose-Dependent Effect”. The Activity [23] was “Active”, the inhibition [24] was “Dose-Dependent Effect” and the Activity [25] was “Active”. For the same compound, the IC50 [3] was 1.3 nM, the MST [26] was 16 days and the IC50 [4] was 1.5 nM. For the same compound, the Activity [27] was “inactive”, the IC50 [5] was 1.4 nM and the Activity [28] was -4.5%. For the same compound, the Activity [29] was 1395 mm3, the Activity [30] was 100% and the Activity [31] was “Active”. For the same compound, the IC50 [6] was 1.6 nM, the Activity [32] was “Non-Toxic” and the Activity [33] was 10.
Work on `CC(=O)O[C@H]1C(=O)[C@@]2(C)[C@H]([C@H](OC(=O)c3ccccc3)[C@]3(O)C[C@H](OC(=O)[C@H](O)[C@@H](NC(=O)c4ccccc4)c4ccccc4)C(C)=C1C3(C)C)[C@]1(OC(C)=O)CO[C@@H]1C[C@@H]2O` [PACLITAXEL] yielded an IC50 [1] of 392 nM, an IC50 [3] of 20 nM and an IC50 [6] of 1.1 nM.
Compound `CC[C@]1(O)C[C@@H]2CN(CCc3c([nH]c4ccccc34)[C@@](C(=O)OC)(c3cc4c(cc3OC)N(C)[C@H]3[C@@](O)(C(=O)OC)[C@H](OC(C)=O)[C@]5(CC)C=CCN6CC[C@]43[C@@H]65)C2)C1` [VINBLASTINE] has an IC50 [1] of 70 nM, an IC50 [3] of 4.4 nM and an IC50 [4] of 1.5 nM. For the same compound, the IC50 [5] was 1.5 nM and the IC50 [6] was 0.54 nM.
With `COCc1cc2cccc(NC(C)=C3C(=O)CC(c4ccccc4)CC3=O)c2o1` (stereo not given) the IC50 [34] was 39 nM, the IC50 [35] was 23 nM and the Kd [36] was 3 nM.
In the case of `COc1ccc(-c2ccc(OC)c(=O)cc2)c(OC)c1OC`, the K [37] is reported as 6 s⁻¹.
With `COc1ccc(/C=C\c2cc(OC)c(OC)c(OC)c2)cc1O` the Ka [38] was 3 10^8/M.
Compound `COc1cc2c(c(OC)c1OC)-c1ccc(OC)c(=O)cc1[C@@H](NC(C)=O)CC2` [COLCHICINE] has an IC50 [34] of 537 nM, an IC50 [39] of 49 nM and an IC50 [40] of 11 nM. For the same compound, the IC50 [41] was 19 nM.
In the case of `COc1cc([C@@H]2c3cc4c(cc3[C@H](O)[C@H]3COC(=O)[C@H]23)OCO4)cc(OC)c1OC` [PODOFILOX], the IC50 [1] is reported as 20 nM, the IC50 [3] is reported as 18 nM and the IC50 [4] is reported as 16 nM. The IC50 [6] was 15.5 nM.
In the case of `COc1cc2cc(c1Cl)N(C)C(=O)C[C@H](OC(=O)[C@H](C)N(C)C(C)=O)[C@]1(C)O[C@H]1[C@H](C)[C@@H]1C[C@@](O)(NC(=O)O1)[C@H](OC)/C=C/C=C(\C)C2` [MAYTANSINE], the IC50 [1] is reported as 19 nM, the IC50 [3] is reported as 1.1 nM and the IC50 [4] is reported as 0.59 nM. It also gave an IC50 [5] of 0.74 nM and an IC50 [6] of 0.33 nM.

— ChEMBL document CHEMBL5385914 (J Med Chem, 2024)
